Results from PubChem BioAssay (NCI).
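Test compounds were applied to cells in 96-well plates for 48 hours at 5 doses. TGI: concentration producing complete growth inhibition.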

Experiments:
Experiment in all cases: NCI anticancer screen, dose series, 48 h
BT-549 breast = system: BT-549 breast
NCI/ADR-RES ovarian = system: NCI/ADR-RES ovarian
MDA-N = system: MDA-N
OVCAR-3 ovarian = system: OVCAR-3 ovarian
T-47D breast = system: T-47D breast
OVCAR-8 ovarian = system: OVCAR-8 ovarian
SW-620 colon = system: SW-620 colon
CAKI-1 renal = system: CAKI-1 renal
RXF 393 renal = system: RXF 393 renal
A549 NSCLC = system: A549 NSCLC
TK-10 renal = system: TK-10 renal
RPMI-8226 leukemia = system: RPMI-8226 leukemia
SF-539 CNS = system: SF-539 CNS
HOP-62 NSCLC = system: HOP-62 NSCLC
EKVX NSCLC = system: EKVX NSCLC
SNB-19 CNS = system: SNB-19 CNS
UACC-62 melanoma = system: UACC-62 melanoma
SF-268 CNS = system: SF-268 CNS
SN12C renal = system: SN12C renal
CCRF-CEM leukemia = system: CCRF-CEM leukemia
SNB-75 CNS = system: SNB-75 CNS
NCI-H226 lung = system: NCI-H226 lung
LOX IMVI melanoma = system: LOX IMVI melanoma
SK-OV-3 ovarian = system: SK-OV-3 ovarian
COLO 205 colon = system: COLO 205 colon
DU-145 prostate = system: DU-145 prostate
786-0 renal = system: 786-0 renal
HOP-92 NSCLC = system: HOP-92 NSCLC
M14 melanoma = system: M14 melanoma
NCI-H460 lung = system: NCI-H460 lung
IGROV1 ovarian = system: IGROV1 ovarian
ACHN renal = system: ACHN renal
UO-31 renal = system: UO-31 renal
MDA-MB-435 = system: MDA-MB-435
SK-MEL-5 melanoma = system: SK-MEL-5 melanoma
KM12 colon = system: KM12 colon
PC-3 prostate = system: PC-3 prostate
OVCAR-5 ovarian = system: OVCAR-5 ovarian
HCC-2998 colon = system: HCC-2998 colon
MCF7 breast = system: MCF7 breast
NCI-H23 lung = system: NCI-H23 lung
UACC-257 melanoma = system: UACC-257 melanoma
HT29 colon = system: HT29 colon
SK-MEL-2 melanoma = system: SK-MEL-2 melanoma
A498 renal = system: A498 renal
NCI-H522 lung = system: NCI-H522 lung
SK-MEL-28 melanoma = system: SK-MEL-28 melanoma
U251 CNS = system: U251 CNS
HCT-15 colon = system: HCT-15 colon
OVCAR-4 ovarian = system: OVCAR-4 ovarian
MOLT-4 leukemia = system: MOLT-4 leukemia
K-562 leukemia = system: K-562 leukemia
SF-295 CNS = system: SF-295 CNS
MALME-3M melanoma = system: MALME-3M melanoma
HCT-116 colon = system: HCT-116 colon
MDA-MB-231 breast = system: MDA-MB-231 breast
HL-60(TB) leukemia = system: HL-60(TB) leukemia
HS 578T breast = system: HS 578T breast
SR leukemia = system: SR leukemia

Question: Which results are given for `O=C1C=CC(=O)C1(Br)Br`?
Answer: TGI (BT-549 breast): 24.9 µM; TGI (NCI/ADR-RES ovarian): 68.3 µM; TGI (MDA-N): 27.5 µM; TGI (OVCAR-3 ovarian): 31.4 µM; TGI (T-47D breast): 51.6 µM; TGI (OVCAR-8 ovarian): 24.1 µM; TGI (SW-620 colon): 27.9 µM; TGI (CAKI-1 renal): 11.4 µM; TGI (RXF 393 renal): 15.9 µM; TGI (A549 NSCLC): 31.7 µM; TGI (TK-10 renal): 10.4 µM; TGI (RPMI-8226 leukemia): 20.1 µM; TGI (SF-539 CNS): 30.4 µM; TGI (HOP-62 NSCLC): 38.4 µM; TGI (EKVX NSCLC): 29.7 µM; TGI (SNB-19 CNS): 31.8 µM; TGI (UACC-62 melanoma): 25.3 µM; TGI (SF-268 CNS): 37.9 µM; TGI (SN12C renal): 21.4 µM; TGI (CCRF-CEM leukemia): 26.6 µM; TGI (SNB-75 CNS): 24.5 µM; TGI (NCI-H226 lung): 38.2 µM; TGI (LOX IMVI melanoma): 27.2 µM; TGI (SK-OV-3 ovarian): 43.2 µM; TGI (COLO 205 colon): 24.1 µM; TGI (DU-145 prostate): 39 µM; TGI (786-0 renal): 23.8 µM; TGI (HOP-92 NSCLC): 40.9 µM; TGI (M14 melanoma): 38.1 µM; TGI (NCI-H460 lung): 41.6 µM; TGI (IGROV1 ovarian): 13.7 µM; TGI (ACHN renal): 17.3 µM; TGI (UO-31 renal): 18.7 µM; TGI (MDA-MB-435): 29.8 µM; TGI (SK-MEL-5 melanoma): 34 µM; TGI (KM12 colon): 29.4 µM; TGI (PC-3 prostate): 33.1 µM; TGI (OVCAR-5 ovarian): 25.3 µM; TGI (HCC-2998 colon): 31.2 µM; TGI (MCF7 breast): 34.6 µM; TGI (NCI-H23 lung): 39.9 µM; TGI (UACC-257 melanoma): 30.7 µM; TGI (HT29 colon): 32.7 µM; TGI (SK-MEL-2 melanoma): 31.4 µM; TGI (A498 renal): 27.4 µM; TGI (NCI-H522 lung): 14.4 µM; TGI (SK-MEL-28 melanoma): 21.8 µM; TGI (U251 CNS): 29.1 µM; TGI (HCT-15 colon): 17.3 µM; TGI (OVCAR-4 ovarian): 33.2 µM; TGI (MOLT-4 leukemia): > 100 µM; TGI (K-562 leukemia): > 95.1 µM; TGI (SF-295 CNS): 34.1 µM; TGI (MALME-3M melanoma): 41.5 µM; TGI (HCT-116 colon): 20.9 µM; TGI (MDA-MB-231 breast): 23.1 µM; TGI (HL-60(TB) leukemia): 49 µM; TGI (HS 578T breast): 50.1 µM; TGI (SR leukemia): 29.5 µM

Question: What does the source list for `COC(=O)C1OC(O[C@H]2CC[C@]3(C)[C@H]4CC=C5[C@@H]6CC(C)(C)CC[C@]6(C(=O)OC)[C@H](O)C[C@@]5(C)[C@]4(C)CC[C@H]3C2(C)C)C(O)C(O)C1O` (stereo partly specified)?
Answer: TGI (BT-549 breast): 30.4 µM; TGI (NCI/ADR-RES ovarian): 26.3 µM; TGI (MDA-N): 24.9 µM; TGI (OVCAR-3 ovarian): 22.1 µM; TGI (T-47D breast): 28.6 µM; TGI (OVCAR-8 ovarian): 27.3 µM; TGI (SW-620 colon): 24.9 µM; TGI (CAKI-1 renal): 27.2 µM; TGI (RXF 393 renal): 18.1 µM; TGI (A549 NSCLC): 17.4 µM; TGI (RPMI-8226 leukemia): 27.4 µM; TGI (HOP-62 NSCLC): 31.1 µM; TGI (EKVX NSCLC): 21.4 µM; TGI (SNB-19 CNS): 26.9 µM; TGI (UACC-62 melanoma): 25.1 µM; TGI (SF-268 CNS): 29.5 µM; TGI (SN12C renal): 25.9 µM; TGI (CCRF-CEM leukemia): 21.4 µM; TGI (SNB-75 CNS): 28.1 µM; TGI (NCI-H226 lung): 31.7 µM; TGI (LOX IMVI melanoma): 17.1 µM; TGI (SK-OV-3 ovarian): 28.2 µM; TGI (COLO 205 colon): 17.5 µM; TGI (DU-145 prostate): 21.6 µM; TGI (786-0 renal): 20.9 µM; TGI (HOP-92 NSCLC): 30.5 µM; TGI (M14 melanoma): 18.3 µM; TGI (NCI-H460 lung): 22.7 µM; TGI (IGROV1 ovarian): 24.8 µM; TGI (ACHN renal): 23.8 µM; TGI (UO-31 renal): 26.9 µM; TGI (MDA-MB-435): 27.7 µM; TGI (SK-MEL-5 melanoma): 26.2 µM; TGI (KM12 colon): 4.21 µM; TGI (PC-3 prostate): 19.8 µM; TGI (OVCAR-5 ovarian): 26 µM; TGI (HCC-2998 colon): 8.64 µM; TGI (MCF7 breast): 23.5 µM; TGI (NCI-H23 lung): 18.9 µM; TGI (UACC-257 melanoma): 29.1 µM; TGI (HT29 colon): 13.5 µM; TGI (SK-MEL-2 melanoma): 28.7 µM; TGI (A498 renal): 26.1 µM; TGI (NCI-H522 lung): 3.06 µM; TGI (SK-MEL-28 melanoma): 23.8 µM; TGI (U251 CNS): 23.9 µM; TGI (HCT-15 colon): 22.2 µM; TGI (OVCAR-4 ovarian): 19.7 µM; TGI (MOLT-4 leukemia): 25.2 µM; TGI (K-562 leukemia): 15 µM; TGI (SF-295 CNS): 23.1 µM; TGI (MALME-3M melanoma): 25.4 µM; TGI (HCT-116 colon): 17 µM; TGI (MDA-MB-231 breast): 21.8 µM; TGI (HL-60(TB) leukemia): 13.7 µM; TGI (HS 578T breast): 34.1 µM; TGI (SR leukemia): 15.9 µM
